Test [1] relates to convulsions provoquées par le pentylénététrazole. Put plainly: Pentylenetetrazole-induced convulsions test in mice. Type of test: in vivo, souris. To be noted: Mus musculus, ip, 0.5 h; Swiss female mice, intraperitoneal 30 minutes before 130 mg/kg pentylénététrazole intraperitoneal; read-out: DE₅₀ (doses protégeant 50% des animaux). From the text: (§1) La nouvelle activité anticonvulsivante des composés de formule (I), a été mise en évidence en évaluant les effets des composés (I) dans le test des convulsions provoquées par électrochoc chez la souris et dans le test des convulsions provoquées par le pentylénététrazole chez la souris selon la méthode décrite par C.S. Goodman, M. Singh Grewal, W.C. Brown et E.A. Swinyard dans J. Pharmacol. Exp. Ther. 108, 168-176, (1953).
(§2) Pour ces tests on a utilisé des souris Swiss femelles d'un poids corporel de 22 à 26 g, réparties en lot de 10 animaux chacun. Une semaine avant l'expérimentation, chaque lot de 10 a été mis en cage, gardé dans une pièce à température constante (21°C ± 1°C), en cycle jour/nuit, avec nourriture et boisson à volonté. Les produits de formule (I) à tester ainsi que le pentylénététrazole ont été mis en solution dans de l'eau distillée. Le volume d'injection des produits utilisés a été de 0,4 ml pour 20 g de poids corporel. • · Convulsions provoquées par le pentylénététrazole. Les composés de formule (I) ont été administrés par voie intrapéritonéale 30 minutes avant l'administration par voie intrapéritonéale de 130 mg/kg de pentylénététrazole (dose nécessaire pour que 80% des souris contrôlées présentent une crise convulsive). […]

Test [2] deals with convulsions provoquées par électrochoc. Put plainly: Electroshock-induced convulsions test in mice. The test is classed as in vivo, souris. To be noted: Mus musculus, ip, 0.5 h; Swiss female mice, intraperitoneal 30 minutes before the shock (12 volts, 0,4 secondes, corneal electrodes); read-out: DE₅₀ (doses protégeant 50% des animaux).
From the text: as §1, §2

SMILES strings stand for the structures.

`NC1CCN(c2cccc(Cl)n2)CC1` [4-amino-1-(6-chloro-2-pyridyl)pipéridine]: the ED50 was < 10 mg/kg in test [1] and < 3 mg/kg in test [2].

For the origin of these results see patent EP0535626A1, “Use of 4-amino-1-(2-pyridyl)piperidines as anti-convulsivant and anti-epileptic agents” (SANOFI, priority 1991, dated 1993).
